Assay results taken from PMC10895668, “Lead Optimization of the 5-Phenylpyrazolopyrimidinone NPD-2975 toward Compounds with Improved Antitrypanosomal Efficacy” (Journal of Medicinal Chemistry, 2024).
Where two headings read alike, the source gives them in different places.

Assays:
[1] = system: peritoneal mouse macrophages (PMM); test: Cytotoxicity on peritoneal mouse macrophages; assay type: cell-based; conditions: Macrophage, n ≥ 2
MRC-5 cells [2] = conditions: Figure 1; previously reported series ref 21; cited from earlier work
T. b. brucei [3] = system: T. b. brucei; parameters: method as in PMID 37471520; conditions: previous in vivo results ref 21, cited from earlier work
MRC-5 cells [4] = test: MRC-5SV2 cytotoxicity assay; assay type: cell-based; conditions: Homo sapiens, MRC5, 72 h; cytotoxicity, 3 days incubation; mean ± SD, n ≥ 2; read-out: pIC50 MRC-5 (converted)
Method: The synthesized analogues were tested against T. b. brucei, and inhibition of MRC-5 (human lung fibroblasts MRC-5SV40) cell proliferation was included as cytotoxicity control. […] Analogue 17 with an amino group instead of the carbonyl group was prepared to improve solubility for further modification. […] In vitro experiments were carried out with the bloodstream form of the T. b. brucei Squib strain (suramin-sensitive). […] All cultures and assays were conducted at 37 °C under an atmosphere of 5% CO2. […] Cell growth is compared to untreated-control wells (100% cell growth) and medium-control wells (0% cell growth). […] After 4 h at 37 °C, fluorescence is measured (λex 550 nm, λem 590 nm). The results are expressed as % reduction in cell growth/viability compared to control wells and an IC50 and an IC90 (50 and 90% inhibitory concentrations) are determined.

in vivo = conditions: female, Swiss, mouse, in vivo
Method: (§1) The antiparasitic assays were carried out exactly as described in Blaazer et al.([39]) Metabolic stability, pharmacokinetics, acute mouse infection model results were collected as described previously.[21] All animal experiments were conducted in compliance with institutional guidelines and following approval by the Ethical Committee of the University of Antwerp, Belgium [UA-ECD 2014–96]. Female Swiss mice (15–20 g), were purchased from Janvier (Le Genest Saint Isle, France). […] Animals were treated PO b.i.d. for 5 days at 25 and 50 mg/kg 31c. For the SL-RNA qPCR experiments blood was collected sublingually and subjected to erythrocyte lysis before extracting RNA with the QIAamp RNA Blood Mini kit (Qiagen). […] Small pieces of fat, brain, and spleen tissue were excised and immediately transferred to RNA later (Qiagen) and incubated overnight at 4 °C. RNA extraction was performed as instructed in the RNeasy Mini Plus Kit manual (Qiagen). The one-step SensiFAST SYBR Hi-Rox PCR kit (Bioline USA Inc., via Gentaur Belgium BVBA, Kampenhout, Belgium) was used for the PCR with the following forward and reverse primers, respectively 5′-[…]-3′ and 5′-[…]-3′. An initial activation step of 10 min at 45 °C and 10 min at 95 °C was used, followed by the amplification step for 40 cycles (15 s at 95 °C, 15 s 50 °C and 15 s at 60 °C). At last, the melting curves were generated with an increment of 0.3 °C (15 s at 95 °C 1 min at 45 °C and 15 s at 95 °C). The PCR was run on the Step One Plus real-time PCR system (Applied Biosystems, California, USA). An additional qPCR was performed with the mouse housekeeping gene Eef2 to confirm successful RNA extraction.
Blood drops were sampled before treatment and at 0.5, 1, 2, 4, 6, and 24 h after PO dosage; samples after IP dosage were identical with an additional time point of 0.25 h. The blood drops were analyzed adopting the dry blood spot technique and analysis by LC-MS^2. Briefly, blood was collected from the retro-orbital complex using capillary tubes and dropped (15 μL) on WhatmanFTADMPK cards (B). The spots were left to air-dry at room temperature for at least 2 h. For analysis, a 6 mm disk was punched out and extracted in 75:25 MeCN/water containing the internal standard tolbutamide. The amount of parent compound was determined using liquid chromatography (UPLC) (Waters Aquity) coupled with tandem quadrupole mass spectrometry (MS^2) (Waters Xevo) equipped with an electrospray ionization (ESI) interface and operated in multiple reaction monitoring mode. Standard curves in whole blood were made for calibration and validation. Standard PK parameters were determined using Topfit software.
Brain tissue of the animals was collected on ice at autopsy 24 h post-treatment (50 mg/kg oral dose) after perfusion. […] The tissues were immediately homogenized using a GentleMacs tissue homogenizer. The tissue samples were subjected to protein precipitation by adding MeCN, followed by a centrifugation step at 4 °C for 5 min at 21, 130 g. The supernatant was further diluted in 75:25 MeCN/water for LC-MS^2 analysis as described above.

Leishmania infantum = test: Antiparasitic assay, L. infantum; assay type: cell-based; conditions: mean ± SD, n ≥ 2, read-out: pIC50 L. infantum (converted)
Method: (§2) First, they were tested in vitro against the protozoan species Trypanosoma cruzi and Leishmania infantum and the clinically relevant T. b. rhodesiense.
as §1, with “An initial activation step of 10 min at 45 °C and 10 min at 95 °C was used, followed by the amplification step for 40 cycles (15 s at 95 °C, 15 s 50 °C and 15 s at 60 °C). At last, the melting curves were generated with an increment of 0.3 °C (15 s at 95 °C 1 min at 45 °C and 15 s at 95 °C). The PCR was run on the Step One Plus real-time PCR system (Applied Biosystems, California, USA). An additional qPCR was performed with the mouse housekeeping gene Eef2 to confirm successful RNA extraction.” left out

[5] = human, microsomes, 1 h
T. b. rhodesiense = test: Trypanosoma susceptibility assay (resazurin viability); assay type: cell-based; conditions: Trypanosoma brucei, mean ± SD, n ≥ 2, read-out: pIC50 T. b. rhodesiense (converted)
Method: The antiparasitic assays were carried out exactly as described in Blaazer et al.([39]) Metabolic stability, pharmacokinetics, acute mouse infection model results were collected as described previously.[21] All animal experiments were conducted in compliance with institutional guidelines and following approval by the Ethical Committee of the University of Antwerp, Belgium [UA-ECD 2014–96]. Female Swiss mice (15–20 g), were purchased from Janvier (Le Genest Saint Isle, France). […] Animals were treated PO b.i.d. for 5 days at 25 and 50 mg/kg 31c. For the SL-RNA qPCR experiments blood was collected sublingually and subjected to erythrocyte lysis before extracting RNA with the QIAamp RNA Blood Mini kit (Qiagen). […]
Parasites were counted in a KOVA counting chamber and diluted to 1.5 × 10^4 parasites/well of a 96-well plate (200 μL total volume), upon which the prediluted test compounds were added. […] After 3 days of incubation, parasite growth was assessed fluorimetrically after addition of 50 μL of resazurin per well. After 6 h (T. b. rhodesiense) or 24 h (T. b. brucei) at 37 °C, fluorescence is measured (λex 550 nm, λem 590 nm). Parasite viability was assessed using the resazurin viability assay, and drug activity was calculated as percentage viability reduction compared to nontreated controls.

T. b. brucei [6] = test: as above; assay type: cell-based
Method: as §1
In vitro experiments were carried out with the bloodstream form of the T. b. brucei Squib strain (suramin-sensitive). Parasites were routinely cultured in T25 culture flasks containing 10 mL of HMI-9 medium (Invitrogen) supplemented with 10% heat-inactivated fetal bovine serum (Life Technologies) and 2.5 μg/mL Geneticin (Life Technologies). MRC-5SV2 cells were cultured in MEM + Earl’s salts-medium, supplemented with 2 mM L-glutamine, 16.5 mM NaHCO3, and 5% inactivated fetal calf serum. All cultures and assays were conducted at 37 °C under an atmosphere of 5% CO2.
Parasites were counted in a KOVA counting chamber and diluted to 1.5 × 10^4 parasites/well of a 96-well plate (200 μL total volume), upon which the prediluted test compounds were added. Drug exposure covered a 72 h period without renewal of the culture medium. After 3 days of incubation, parasite growth was assessed fluorimetrically after addition of 50 μL of resazurin per well. After 6 h (T. b. rhodesiense) or 24 h (T. b. brucei) at 37 °C, fluorescence is measured (λex 550 nm, λem 590 nm). Parasite viability was assessed using the resazurin viability assay, and drug activity was calculated as percentage viability reduction compared to nontreated controls.

Trypanosoma cruzi = test: Antiparasitic assay, T. cruzi; assay type: cell-based; conditions: mean ± SD, n ≥ 2, read-out: pIC50 T. cruzi (converted)
Method: as §2
as §1, with “An initial activation step of 10 min at 45 °C and 10 min at 95 °C was used, followed by the amplification step for 40 cycles (15 s at 95 °C, 15 s 50 °C and 15 s at 60 °C). At last, the melting curves were generated with an increment of 0.3 °C (15 s at 95 °C 1 min at 45 °C and 15 s at 95 °C). The PCR was run on the Step One Plus real-time PCR system (Applied Biosystems, California, USA). An additional qPCR was performed with the mouse housekeeping gene Eef2 to confirm successful RNA extraction.” left out

[7] = mouse, microsomes

Row | SMILES | IC50 [1] [µM] | MRC-5 pIC50 (MRC-5 cells [2]) | survival (T. b. brucei [3]; 25 mg/kg group) | survival (T. b. brucei [3]; 50 mg/kg dose) | IC50 (MRC-5 cells [4]) [µM] | Tmax at 24 h (in vivo; ip, 10 mg/kg) [h] | Tmax at 24 h (in vivo; po, 50 mg/kg) [h] | IC50 (Leishmania infantum) [µM] | parent compound remaining [5] | IC50 (T. b. rhodesiense) [µM] | improved potency compared to 2 (T. b. brucei [6]; T. brucei, versus compound 2) [fold] | IC50 (T. b. brucei [6]; Trypanosoma brucei, 72 h, T. b. brucei Squib bloodstream form, 72 h exposure, mean ± SD, n ≥ 2, read-out: pIC50 T. brucei (converted)) [µM] | IC50 (Trypanosoma cruzi) [µM] | time within which compound was metabolized [7] [min] | parent compound remaining ([7]; 1 h)
1 | CC(C)c1n[nH]c2c(=O)[nH]c(-c3ccc(F)cc3)nc12 [compound 2] | > 63.1 | < 4.2 | all animals died at 11 days postinfection | all animals survived until the end of the experiment | > 63.1 | 0.25 | 3 ± 1.5 | – | – | – | – | – | – | – | –
2 | O=c1[nH]c(-c2ccc(F)cc2)nc2c(C3CCCC3)n[nH]c12 [31a, 3-Cyclopentyl-5-(4-fluorophenyl)-1,6-dihydro-7H-pyrazolo[4,3-d]pyrimidin-7-one] | > 63.1 | – | – | – | > 63.1 | – | – | > 63.1 | at least 69% | 0.01 | 6 | 0.01 | > 63.1 | ≤ 15 | at least 69%
